The record followed here is patent publication US20230129034A1, “TREATMENT OF DISEASE WITH ESTERS OF SELECTIVE RXR AGONISTS” (Io Therapeutics, Inc., priority 2017, published 2023).

The EC50 is the concentration at which the effect is half-maximal. Higher therefore signals lower potency in that assay.

One series deals with T1, RARα (Homo sapiens, UniProt P10276).
T1 construct: expressed in transfected cells; host or cells: CV-1
Description: RAR transactivation assay (ER-RAR fusion, ERE-tk-Luc reporter, CV-1 cells). The series is classed as cell-based. The text has this:
Data are mean values ± SE from five independent experiments.

The test system of the next series is EAE in SJL mice. Description: EAE in SJL mice, PLP peptide induced. The format is in vivo. As to conditions: for symptoms of EAE in SJL mice: 50 µg i.p. every other day from day 7. The protocol:
To determine whether a RXR agonist or an ester of a RXR agonist can attenuate multiple sclerosis, SJL mice were immunized to induce EAE by s.c. injection at the base of their spine with 200 µL of adjuvant containing 200 µg proteolipid proteins (139-151) (PLP peptide; Peptides International, Louisville, KY) and 400 µg of non-viable M. tuberculosis H37 desiccate emulsified in a mixture of incomplete Freund’s adjuvant and PBS. Mice were also given 150 ng of pertussis toxin in PBS i.p. on the same day as PLP emulsion injection and 2 days later. […] Mice were scored using the scale described in Example 6.

The test system of series [1] is demyelinated caudal cerebellar peduncles of one year old rats. Description: Focal toxin (ethidium bromide) induced rat model of demyelination. The series is classed as in vivo. The protocol: The experiment uses rats of relatively advanced age (1 year) since such rats undergo remyelination in a less efficient manner, thereby providing data that are more relevant to the clinical treatment of human patients with multiple sclerosis or other demyelination disorders.
Focal demyelination is induced in one year old rats (approximately 300 g in weight) by injecting stereotactically 5 µl of ethidium bromide solution (0.01% vol/vol in saline) in a bilateral manner into the caudal cerebellar peduncles (CCP). […] The rats are killed on day 24 post-ethidium bromide treatment for analysis of remyelination by quantitative polymerase chain reaction (qPCR) and microscopy.

In series [2] the test system is oligodendrocyte precursor cells (OPCs). Description: Oligodendrocyte precursor cell differentiation (PLP-EGFP OPCs). The format is cell-based, mouse. As to conditions: for OPC differentiation into oligodendrocytes (EGFP positive cells): compared to negative control (DMSO). The text has this: OPCs were generated from a neurosphere culture of E14.5 PLP-EGFP (on C57BL/6J background) mouse brains. […] The EGFP expressing cells were quantified with Cellomics Neuronal Profiling Algorithm.
The EGFP expressing cells in controls and all compounds were quantified with Cellomics Neuronal Profiling Algorithm.

Series [3] is described as follows: Plasma and brain concentrations after intravenous injection in ICR mice (LC-MS/MS). The series is classed as in vivo. As to conditions: 1 mg/kg IV. The protocol: The compounds were dissolved in 4% DMSO, 1% Tween80 and 95% PBS(v/v) at a concentration of 0.2 mg/ml. Each mouse was injected with a volume to deliver 1 mg/kg of the compound (corresponding to 3 mg/m^2).
At designated time points (0.5, 1.5, and 3 hr), with the mice under terminal isofluorane anesthesia, systemic blood sample (ca 0.4-0.5 mL) were collected by cardiac puncture into micro-tube containing sodium EDTA-K2 as anti-coagulant (n=3 at each time point). Blood samples from the IRX4204EE arm of the study had appropriate esterase inhibitors added. The blood was centrifuged at 13000 rpm for 3 min at 4° C. to obtain plasma and protein was precipitated with acetonitrile prior to being assayed for compound content. The brain was removed and transferred to a pre-weighed vessel for weight determination. Brain tissue was homogenized in five volumes of PBS, centrifuged, and the supernatant assayed for compound content. […] The same standard curve was used to quantitate analyte concentrations in both brain and plasma.

In the next series the target is T2, Nurr1/RXR heterodimer (Homo sapiens, UniProt P19793).
T2 construct: full length Nurr-1 with or without full-length RXRα plasmid; expressed in transfected cells; host or cells: COS7
T2 sequence (P19793 whole entry): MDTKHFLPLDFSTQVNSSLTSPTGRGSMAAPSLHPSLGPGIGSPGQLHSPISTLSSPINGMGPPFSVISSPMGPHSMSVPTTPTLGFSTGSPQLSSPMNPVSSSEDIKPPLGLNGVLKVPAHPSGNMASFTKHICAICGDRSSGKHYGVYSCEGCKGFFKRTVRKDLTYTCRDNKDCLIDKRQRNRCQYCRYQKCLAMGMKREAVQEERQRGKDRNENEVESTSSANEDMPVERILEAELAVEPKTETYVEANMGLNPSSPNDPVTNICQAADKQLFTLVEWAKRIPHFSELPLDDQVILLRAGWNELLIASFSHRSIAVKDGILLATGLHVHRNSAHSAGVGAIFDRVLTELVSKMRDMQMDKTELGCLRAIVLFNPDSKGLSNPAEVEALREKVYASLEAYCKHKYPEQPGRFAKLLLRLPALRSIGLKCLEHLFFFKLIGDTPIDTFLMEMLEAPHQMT
T2 sequence (P43354 whole entry partner): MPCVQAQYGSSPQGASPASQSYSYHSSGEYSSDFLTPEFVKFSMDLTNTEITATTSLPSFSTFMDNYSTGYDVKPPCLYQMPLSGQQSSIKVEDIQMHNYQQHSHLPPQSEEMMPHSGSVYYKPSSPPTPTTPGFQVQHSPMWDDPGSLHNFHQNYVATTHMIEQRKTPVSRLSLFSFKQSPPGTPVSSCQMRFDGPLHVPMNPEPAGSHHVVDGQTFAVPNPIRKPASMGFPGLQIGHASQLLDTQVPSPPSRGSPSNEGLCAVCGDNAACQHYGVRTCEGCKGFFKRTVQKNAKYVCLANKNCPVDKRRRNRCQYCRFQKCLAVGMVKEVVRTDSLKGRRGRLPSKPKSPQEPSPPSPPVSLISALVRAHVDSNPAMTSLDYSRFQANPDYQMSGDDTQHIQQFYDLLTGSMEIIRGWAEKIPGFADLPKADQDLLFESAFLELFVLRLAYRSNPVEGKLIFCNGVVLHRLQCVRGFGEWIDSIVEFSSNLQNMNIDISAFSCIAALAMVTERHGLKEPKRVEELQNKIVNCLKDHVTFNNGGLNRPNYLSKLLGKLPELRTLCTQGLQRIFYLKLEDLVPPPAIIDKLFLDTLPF
Description: Nurr1/RXR transactivation assay, COS7 cells, 3xNBRE-tk-luc. The conditions noted are these: for activation of the Nurr1/RXR heterodimer: COS7 cells, 20 hr. The format is cell-based. The text has this:
(§1) For PPARy: CV-1 cells were transfected with 3x(rAOX/DR1)-tk-Luc reporter gene and an expression vector for PPARy. For FXR:CV-1 cells were transfected with 3x(IBABP/IRI)-tk-Luc reporter gene and vectors for FXR and RXRα. For LXR:CV-1 cells were transfected with 3x(PLTP/LXRE)-tk-Luc reporter gene with vectors for LXRα or LXRβ. For Nurr1: COS7 cells were transfected with 3xNBRE-tk-luc reporter gene and full length Nurr-1 with or without full-length RXRα plasmid. […] Luciferase data were normalized to co-transfected β-gal activity. Luciferase activity was expressed as percent of maximal activity obtained using specific agonists. Rosiglitazone (PPARy), GW4064 (FXR), T0901317 (LXR).

The test system of the next series is LXRα/RXR. As to the kind of experiment: Permissive heterodimer transactivation assay, CV-1 cells, 3x(PLTP/LXRE)-tk-Luc. The series is classed as cell-based. The conditions noted are these: 20 hr, luciferase vs T0901317.
Source text: as §1

The test system of the next series is LXRβ/RXR. The description is as above. The format is cell-based. As to conditions: 20 hr, luciferase vs T0901317.
Source text: as §1

Series [4] has as its system experimental autoimmune encephalomyelitis (EAE) in C57BL/6 (B6) mice. Description: EAE in C57BL/6 (B6) mice, MOG peptide induced. The series is classed as in vivo. The conditions noted are these: 50 µg i.p. every other day from day 7. The protocol:
Mice were also given 200 ng of pertussis toxin in PBS administered by inter-peritoneal (i.p.) injection on the same day as MOG emulsion injection (day 0) and 2 days later (day 2). […] Mice were scored using the following scale: 0 - Mice have no disease, 1 -Mice have distal limp tail or rear leg weakness (paresis), 1.5 - Mice have distal limp tail and rear leg weakness, 2 - Mice have complete limp tail and rear leg weakness, 2.5 - Mice have complete limp tail and weakness in both rear legs, 3 - Mice have complete limp tail and paralysis in both rear legs, 3.5 - Mice have complete limp tail, paralysis in both rear legs, and forelimb weakness. Mice receiving a score of 3.5 were immediately euthanized.

The mark [5] stands for this setting: 50 µg i.p. every other day from day 7, n=6.
Setting [6] is: 10 mg/kg/day oral gavage, day 7 to day 21.

The structures appear in SMILES notation. “Also recorded” adds a separate entry of the source.

T1 sequence (P10276 183-417 limits assumed, species assumed): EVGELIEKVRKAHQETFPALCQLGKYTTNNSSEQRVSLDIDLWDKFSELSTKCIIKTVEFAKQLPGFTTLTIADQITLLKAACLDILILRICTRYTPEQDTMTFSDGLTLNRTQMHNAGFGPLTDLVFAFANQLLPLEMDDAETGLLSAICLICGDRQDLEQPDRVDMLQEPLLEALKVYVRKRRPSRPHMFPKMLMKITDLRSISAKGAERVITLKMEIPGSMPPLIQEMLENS

Turning to `CCOC(=O)/C=C(C)/C=C/[C@@H]1C[C@]1(C)c1ccc2c(c1)C(C)(C)CCC2(C)C` [IRX4204EE, 3,7-dimethyl-6(S),7(S)-methano,7-[1,1,4,4-tetramethyl-1,2,3,4-tetrahydronaphth-7-yl]2(E),4(E) heptadienoic ethyl ester], the EC50 at RARα (CV-1 cells, 20 hours, luciferase activity) was above 1000 nM. Also, in the series on EAE in SJL mice, the “symptoms of EAE in SJL mice” value was “greater efficacy than IRX4204”. Also, the “activity in focal toxin rat model relative to IRX4204 (same end-points)” value in series [1] (rat, in vivo) was “somewhat more active than the free acid”. Besides, in [2], the “OPC differentiation into oligodendrocytes (EGFP positive cells)” value was “essentially no activity; also recorded: considerably less active”. Also, the “concentration of the ester in the brain over the course of the experiment” value in [3] (0.5 to 3 hr) is “rose slightly”. The “concentration of the ester in blood compared with brain” value in [3] (3 hour time point) was “approximately the same”. For the same compound, in series [3] (3 hours), the “blood concentration of the ester itself relative to IRX4204” value is “about 5 fold” and the “concentration of IRX4204 in the blood from the ester form compared with the free acid form” value was “about the same”. In addition, in [3] (half-hour time point), the “blood concentration of IRX4204 due to conversion of IRX4204EE relative to that due to IV injection of IRX4204” value is listed as “about one sixth”. The “activation of the Nurr1/RXR heterodimer” value at Nurr1/RXR heterodimer is reported as “very little activity”. In addition, the “activation of LXRα/RXR heterodimer” value in the series with LXRα/RXR is “very little activity”. The “activation of LXRβ/RXR heterodimer” value with LXRβ/RXR was “very little activity”. For the same compound, in [4], the “symptoms of EAE (disease severity score)” value was “more effective than IRX4204”.

In the case of `CC(/C=C/[C@@H]1C[C@]1(C)c1ccc2c(c1)C(C)(C)CCC2(C)C)=C\C(=O)O` [IRX4204, 3,7-dimethyl-6(S),7(S)-methano,7-[1,1,4,4-tetramethyl-1,2,3,4-tetrahydronaphth-7-yl]2(E),4(E) heptadienoic acid], the “EC10 with RARα” value at RARα is “about 300 nM”. For the same compound, the “symptoms of EAE in SJL mice” value with EAE in SJL mice was “significantly reduces the symptoms of EAE”. In addition, in the series with EAE in SJL mice (setting [5]), the “Death from Disease” value is on record as 0/6, the “Disease Incidence” value is 4/6 and the “Mean Maximum Score” value was 1.5 ± 1.4. Also, in series [1] (setting [6]), the “Mbp expression (real-time qPCR of lesion samples)” value is recorded as “increase in Mbp expression”, the “Nkx2.2+ oligodendrocyte precursor cells (OPCs) in lesions” value is “increased”, the “Pdgfra expression (real-time qPCR of lesion samples)” value is “increase in Pdgfra expression” and the “density of CC1+ differentiated oligodendrocytes in lesions” value is “increased”. In [1] (setting [6]), the “density of Olig2+ oligodendrocyte lineage cells in lesions” value is listed as “increased” and the “remyelinated axons (ultrastructural analysis of CCP lesions)” value is listed as “more remyelinated axons”. Moreover, in series [2] (all tested concentrations but the lowest concentration (1^-6 µM)), the “OPC differentiation into oligodendrocytes by concentration” value is reported as “significant increase in OPC differentiation”. Moreover, in series [2] (compared to controls), the “total cell number and pyknotic cells” value was “did not show any differences”. Further, the “OPC differentiation into oligodendrocytes (EGFP positive cells)” value in series [2] is recorded as “promotes OPC differentiation”. This compound also displayed a concentration at 3 h in series [3] (male, ICR, mouse, brain, 3 hours post-administration) of 7.9 to 8.2 nM. Besides, on Nurr1/RXR heterodimer, the “concentration at which transactivation of the Nurr1/RXR heterodimer is apparent” value amounted to 100 pM, the “concentration sufficient to achieve full activation of Nurr1/RXR” value was 1 nM and the “activation of the Nurr1/RXR heterodimer” value is recorded as “selectively activates”. The “activation of LXRα/RXR heterodimer” value in the series on LXRα/RXR is “not to transactivate; also recorded: does not activate”. The “activation of LXRβ/RXR heterodimer” value with LXRβ/RXR was “not to transactivate; also recorded: does not activate”. In addition, the “symptoms of EAE (disease severity score)” value in series [4] is listed as “significantly reduces the symptoms of EAE”.
